In patent publication US11053204B2, “Pyrimidinyloxy benzene derivatives as herbicides” (FMC Corporation, priority 2015, dated 2021):

What was measured:
Format in all cases: in vivo
[1] = tested on: Italian ryegrass (Lolium multiflorum); experiment: Test A preemergence, visual injury rating; details: 0 to 100 scale (0 no effect, 100 complete control); for Plant response rating, Ryegrass, Italian: 125 g ai/ha; for Ryegrass, Italian plant response rating: 500 g ai/ha
Outline: (§1)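 Scoring: eye-based comparison with untreated controls, 0 for no effect through 100 for complete control, at about day 10. Treatments: directed soil spray preemergence; foliar spray postemergence on 2–10 cm plants at the one- to two-leaf stage. Medium: loam soil with sand.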

[2] = tested on: barnyardgrass (Echinochloa crus-galli); experiment: Test A preemergence, visual injury rating; details: 0 to 100 scale (0 no effect, 100 complete control); for Plant response rating, Barnyardgrass: 125 g ai/ha; for Barnyardgrass plant response rating: 500 g ai/ha
Outline: as §1

[3] = tested on: giant foxtail (Setaria faberii); experiment: Test A preemergence, visual injury rating; details: 0 to 100 scale (0 no effect, 100 complete control); for Plant response rating, Foxtail, Giant: 125 g ai/ha; for Foxtail, Giant plant response rating: 500 g ai/ha
Outline: as §1

kochia (Kochia scoparia) [4] = experiment: Test A preemergence, visual injury rating; details: 0 to 100 scale (0 no effect, 100 complete control); for Plant response rating, Kochia: 125 g ai/ha; for Kochia plant response rating: 500 g ai/ha
Outline: as §1

[5] = tested on: pigweed (Amaranthus retroflexus); experiment: Test A preemergence, visual injury rating; details: 0 to 100 scale (0 no effect, 100 complete control); for Plant response rating, Pigweed: 125 g ai/ha; for Pigweed plant response rating: 500 g ai/ha
Outline: as §1

[6] = tested on: ragweed (common ragweed, Ambrosia elatior); experiment: Test A preemergence, visual injury rating; details: 0 to 100 scale (0 no effect, 100 complete control); for Plant response rating, Ragweed: 125 g ai/ha; for Ragweed plant response rating: 500 g ai/ha
Outline: as §1

[7] = tested on: ducksalad (Heteranthera limosa); experiment: Test B flooded paddy test, plant response rating; details: 250 g ai/ha; Flood; scale of 0 to 100 where 0 is no effect and 100 is complete control; 13 to 15 days
Outline: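 Visual injury ratings against untreated controls, taken 13 to 15 days after compound was added to paddy water standing 3 cm above the soil.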

[8] = tested on: barnyardgrass (Echinochloa crus-galli); experiment: Test C postemergence, plant response rating; details: for Plant response rating, Barnyardgrass: scale 0 to 100; for Barnyardgrass plant response rating: scale 0 to 100 (0 no effect, 100 complete control)
Outline: (§2)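 Pre-emergence: seeds sown in loam soil–sand blend or silt loam and sprayed with test chemicals in a non-phytotoxic solvent mixture with surfactant. Post-emergence: plants 2 to 18 cm (1- to 4-leaf stage) in peat-based potting medium, same formulation. Greenhouse 13 to 15 d; visual rating 0 (no effect) to 100 (complete control) versus controls.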

corn (Zea mays) = experiment: Test C postemergence, plant response rating; details: for Corn plant response rating: scale 0 to 100 (0 no effect, 100 complete control)
Outline: as §2

[9] = tested on: crabgrass, large (large crabgrass, Digitaria sanguinalis); experiment: Test C postemergence, plant response rating; details: for Crabgrass, Large plant response rating: scale 0 to 100 (0 no effect, 100 complete control)
Outline: as §2

kochia (Kochia scoparia) [10] = experiment: Test C postemergence, plant response rating; details: for Kochia plant response rating: scale 0 to 100 (0 no effect, 100 complete control)
Outline: as §2

[11] = tested on: lambsquarters (Chenopodium album); experiment: Test C postemergence, plant response rating; details: for Lambsquarters plant response rating: scale 0 to 100 (0 no effect, 100 complete control)
Outline: as §2

[12] = tested on: morningglory (Ipomoea coccinea); experiment: Test C postemergence, plant response rating; details: for Morningglory plant response rating: scale 0 to 100 (0 no effect, 100 complete control)
Outline: as §2

[13] = tested on: nutsedge, yellow (yellow nutsedge, Cyperus esculentus); experiment: Test C postemergence, plant response rating; details: for Nutsedge, Yellow plant response rating: scale 0 to 100 (0 no effect, 100 complete control)
Outline: as §2

[14] = tested on: oat, wild (wild oat Avena fatua); experiment: Test C postemergence, plant response rating; details: for Oat, Wild plant response rating: scale 0 to 100 (0 no effect, 100 complete control)
Outline: as §2

[15] = tested on: ragweed (common ragweed, Ambrosia elatior); experiment: Test C postemergence, plant response rating; details: for Ragweed plant response rating: scale 0 to 100 (0 no effect, 100 complete control)
Outline: as §2

[16] = tested on: velvetleaf (Abutilon theophrasti); experiment: Test C postemergence, plant response rating; details: for Velvetleaf plant response rating: 125 g ai/ha, scale 0 to 100 (0 no effect, 100 complete control)
Outline: as §2

In the case of `CCCCC(=O)c1c(Oc2ncc(Cl)cn2)cccc1C(F)(F)F` [Compound 130], the “Plant response rating, Ryegrass, Italian” value [1] was 80, the “Ryegrass, Italian plant response rating” value [1] was 100 and the “Plant response rating, Barnyardgrass” value [2] was 100. The “Barnyardgrass plant response rating” value [2] was 100, the “Plant response rating, Foxtail, Giant” value [3] was 100 and the “Foxtail, Giant plant response rating” value [3] was 100. For the same compound, the “Plant response rating, Kochia” value (kochia (Kochia scoparia) [4]) was 100, the “Kochia plant response rating” value (kochia (Kochia scoparia) [4]) was 100 and the “Plant response rating, Pigweed” value [5] was 100. For the same compound, the “Pigweed plant response rating” value [5] was 100, the “Plant response rating, Ragweed” value [6] was 20 and the “Ragweed plant response rating” value [6] was 90. The “Plant response rating, Ducksalad” value [7] was 40, the “Plant response rating, Barnyardgrass” value ([8]; 16 g ai/ha) was 5 and the “Plant response rating, Barnyardgrass” value ([8]; 31 g ai/ha) was 5. The “Barnyardgrass plant response rating” value ([8]; 62 g ai/ha) was 10, the “Barnyardgrass plant response rating” value ([8]; 125 g ai/ha) was 20 and the “Plant response rating, Corn” value (corn (Zea mays); 16 g ai/ha, scale of 0 to 100) was 10. The “Plant response rating, Corn” value (corn (Zea mays); 31 g ai/ha, scale 0 to 100) was 20, the “Corn plant response rating” value (corn (Zea mays); 62 g ai/ha) was 15 and the “Corn plant response rating” value (corn (Zea mays); 125 g ai/ha) was 20. For the same compound, the “Plant response rating, Crabgrass, Large” value ([9]; 16 g ai/ha, scale of 0 to 100) was 5, the “Plant response rating, Crabgrass, Large” value ([9]; 31 g ai/ha, scale 0 to 100) was 10 and the “Crabgrass, Large plant response rating” value ([9]; 62 g ai/ha) was 10. The “Crabgrass, Large plant response rating” value ([9]; 125 g ai/ha) was 20, the “Plant response rating, Kochia” value (kochia (Kochia scoparia) [10]; 16 g ai/ha, scale of 0 to 100) was 80 and the “Plant response rating, Kochia” value (kochia (Kochia scoparia) [10]; 31 g ai/ha, scale 0 to 100) was 85. For the same compound, the “Kochia plant response rating” value (kochia (Kochia scoparia) [10]; 62 g ai/ha) was 95, the “Kochia plant response rating” value (kochia (Kochia scoparia) [10]; 125 g ai/ha) was 98 and the “Plant response rating, Lambsquarters” value ([11]; 16 g ai/ha, scale of 0 to 100) was 75. The “Plant response rating, Lambsquarters” value ([11]; 31 g ai/ha, scale 0 to 100) was 90, the “Lambsquarters plant response rating” value ([11]; 62 g ai/ha) was 85 and the “Lambsquarters plant response rating” value ([11]; 125 g ai/ha) was 95. The “Plant response rating, Morningglory” value ([12]; 16 g ai/ha, scale of 0 to 100) was 10, the “Plant response rating, Morningglory” value ([12]; 31 g ai/ha, scale 0 to 100) was 25 and the “Morningglory plant response rating” value ([12]; 62 g ai/ha) was 65. For the same compound, the “Morningglory plant response rating” value ([12]; 125 g ai/ha) was 55, the “Plant response rating, Nutsedge, Yellow” value ([13]; 16 g ai/ha, scale of 0 to 100) was 0 and the “Plant response rating, Nutsedge, Yellow” value ([13]; 31 g ai/ha, scale 0 to 100) was 0. The “Nutsedge, Yellow plant response rating” value ([13]; 62 g ai/ha) was 5, the “Nutsedge, Yellow plant response rating” value ([13]; 125 g ai/ha) was 5 and the “Plant response rating, Oat, Wild” value ([14]; 16 g ai/ha, scale of 0 to 100) was 5. For the same compound, the “Plant response rating, Oat, Wild” value ([14]; 31 g ai/ha, scale 0 to 100) was 10, the “Oat, Wild plant response rating” value ([14]; 62 g ai/ha) was 15 and the “Oat, Wild plant response rating” value ([14]; 125 g ai/ha) was 15. For the same compound, the “Plant response rating, Ragweed” value ([15]; 16 g ai/ha, scale of 0 to 100) was 25, the “Plant response rating, Ragweed” value ([15]; 31 g ai/ha, scale 0 to 100) was 45 and the “Ragweed plant response rating” value ([15]; 62 g ai/ha) was 55. For the same compound, the “Ragweed plant response rating” value ([15]; 125 g ai/ha) was 50, the “Plant response rating, Velvetleaf” value ([16]; 16 g ai/ha, scale of 0 to 100) was 25 and the “Plant response rating, Velvetleaf” value ([16]; 31 g ai/ha, scale 0 to 100) was 45. For the same compound, the “Velvetleaf plant response rating” value [16] was 75.
For `CCCC(=O)c1c(Oc2ncc(Cl)cn2)cccc1C(F)(F)F` [Compound 136], the “Plant response rating, Ryegrass, Italian” value [1] was 20, the “Ryegrass, Italian plant response rating” value [1] was 100 and the “Plant response rating, Barnyardgrass” value [2] was 100. For the same compound, the “Barnyardgrass plant response rating” value [2] was 100, the “Plant response rating, Foxtail, Giant” value [3] was 100 and the “Foxtail, Giant plant response rating” value [3] was 100. For the same compound, the “Plant response rating, Kochia” value (kochia (Kochia scoparia) [4]) was 100, the “Kochia plant response rating” value (kochia (Kochia scoparia) [4]) was 100 and the “Plant response rating, Pigweed” value [5] was 100. For the same compound, the “Pigweed plant response rating” value [5] was 100, the “Plant response rating, Ragweed” value [6] was 80 and the “Ragweed plant response rating” value [6] was 80. For the same compound, the “Plant response rating, Ducksalad” value [7] was 60, the “Plant response rating, Barnyardgrass” value ([8]; 16 g ai/ha) was 5 and the “Plant response rating, Barnyardgrass” value ([8]; 31 g ai/ha) was 5. The “Barnyardgrass plant response rating” value ([8]; 62 g ai/ha) was 10, the “Barnyardgrass plant response rating” value ([8]; 125 g ai/ha) was 10 and the “Plant response rating, Corn” value (corn (Zea mays); 16 g ai/ha, scale of 0 to 100) was 5. For the same compound, the “Plant response rating, Corn” value (corn (Zea mays); 31 g ai/ha, scale 0 to 100) was 10, the “Corn plant response rating” value (corn (Zea mays); 62 g ai/ha) was 20 and the “Corn plant response rating” value (corn (Zea mays); 125 g ai/ha) was 20. The “Plant response rating, Crabgrass, Large” value ([9]; 16 g ai/ha, scale of 0 to 100) was 5, the “Plant response rating, Crabgrass, Large” value ([9]; 31 g ai/ha, scale 0 to 100) was 5 and the “Crabgrass, Large plant response rating” value ([9]; 62 g ai/ha) was 10. For the same compound, the “Crabgrass, Large plant response rating” value ([9]; 125 g ai/ha) was 30, the “Plant response rating, Kochia” value (kochia (Kochia scoparia) [10]; 16 g ai/ha, scale of 0 to 100) was 80 and the “Plant response rating, Kochia” value (kochia (Kochia scoparia) [10]; 31 g ai/ha, scale 0 to 100) was 80. The “Kochia plant response rating” value (kochia (Kochia scoparia) [10]; 62 g ai/ha) was 85, the “Kochia plant response rating” value (kochia (Kochia scoparia) [10]; 125 g ai/ha) was 90 and the “Plant response rating, Lambsquarters” value ([11]; 16 g ai/ha, scale of 0 to 100) was 55. For the same compound, the “Plant response rating, Lambsquarters” value ([11]; 31 g ai/ha, scale 0 to 100) was 75, the “Lambsquarters plant response rating” value ([11]; 62 g ai/ha) was 80 and the “Lambsquarters plant response rating” value ([11]; 125 g ai/ha) was 80. For the same compound, the “Plant response rating, Morningglory” value ([12]; 16 g ai/ha, scale of 0 to 100) was 10, the “Plant response rating, Morningglory” value ([12]; 31 g ai/ha, scale 0 to 100) was 15 and the “Morningglory plant response rating” value ([12]; 62 g ai/ha) was 20. For the same compound, the “Morningglory plant response rating” value ([12]; 125 g ai/ha) was 35, the “Plant response rating, Nutsedge, Yellow” value ([13]; 16 g ai/ha, scale of 0 to 100) was 0 and the “Plant response rating, Nutsedge, Yellow” value ([13]; 31 g ai/ha, scale 0 to 100) was 0. For the same compound, the “Nutsedge, Yellow plant response rating” value ([13]; 62 g ai/ha) was 0, the “Nutsedge, Yellow plant response rating” value ([13]; 125 g ai/ha) was 5 and the “Plant response rating, Oat, Wild” value ([14]; 16 g ai/ha, scale of 0 to 100) was 5. The “Plant response rating, Oat, Wild” value ([14]; 31 g ai/ha, scale 0 to 100) was 5, the “Oat, Wild plant response rating” value ([14]; 62 g ai/ha) was 10 and the “Oat, Wild plant response rating” value ([14]; 125 g ai/ha) was 10. The “Plant response rating, Ragweed” value ([15]; 16 g ai/ha, scale of 0 to 100) was 20, the “Plant response rating, Ragweed” value ([15]; 31 g ai/ha, scale 0 to 100) was 20 and the “Ragweed plant response rating” value ([15]; 62 g ai/ha) was 30. For the same compound, the “Ragweed plant response rating” value ([15]; 125 g ai/ha) was 35, the “Plant response rating, Velvetleaf” value ([16]; 16 g ai/ha, scale of 0 to 100) was 20 and the “Plant response rating, Velvetleaf” value ([16]; 31 g ai/ha, scale 0 to 100) was 50. The “Velvetleaf plant response rating” value [16] was 70.
